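Method: 48-hour compound exposure of cells in 96-well plates, five concentrations, linear interpolation of endpoints. GI50: concentration for 50% inhibition of growth.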 Active and inactive are the calls of the source. Cut-off read from the data, not from the text of the source: active = GI50 up to about 1.1 µM and inactive = higher.
What was measured:
Assay in all cases: DTP human tumour cell line panel, 48 h
A498 = tested on: A498
HCC 2998 = tested on: HCC 2998
HOP-62 = tested on: HOP-62
K562 = tested on: K562
KM12 = tested on: KM12
LOX IMVI = tested on: LOX IMVI
MDA-MB-231 = tested on: MDA-MB-231
NCI/ADR-RES = tested on: NCI/ADR-RES
OVCAR-8 = tested on: OVCAR-8
PC-3 = tested on: PC-3
RPMI-8226 = tested on: RPMI-8226
RXF 393 = tested on: RXF 393
SF-268 = tested on: SF-268
SK-OV-3 = tested on: SK-OV-3
SN12C = tested on: SN12C
SNB-75 = tested on: SNB-75
UACC-257 = tested on: UACC-257
MDA-N = tested on: MDA-N
MOLT-4 = tested on: MOLT-4
CCRF-CEM = tested on: CCRF-CEM

Measured: GI50

Cc1nc(Nc2ccc(F)cc2)c2sc(=S)n(-c3ccc(F)cc3)c2n1
inactive: A498 16 µM | HCC 2998 12.2 µM | HOP-62 11.8 µM | K562 33.2 µM | KM12 15 µM | LOX IMVI 4.99 µM | MDA-MB-231 13.9 µM | NCI/ADR-RES 17.1 µM | OVCAR-8 15.6 µM | PC-3 20.1 µM | RPMI-8226 5.01 µM | RXF 393 12.6 µM | SF-268 11 µM | SK-OV-3 19.4 µM | SN12C 14 µM | SNB-75 16.1 µM | UACC-257 13.4 µM

O=C(Cc1ccccc1)NN1C(=O)/C(=C\c2ccccc2O)S/C1=N\c1ccccc1
inactive: A498 > 100 µM | HCC 2998 > 100 µM | HOP-62 > 100 µM | KM12 > 100 µM | MDA-MB-231 > 100 µM | MDA-N > 100 µM | MOLT-4 > 100 µM | NCI/ADR-RES > 100 µM | OVCAR-8 > 100 µM | RPMI-8226 > 100 µM | RXF 393 > 100 µM | SF-268 > 100 µM | SK-OV-3 > 100 µM | SN12C > 100 µM | SNB-75 > 100 µM | UACC-257 > 100 µM

COC(=O)/C=C/c1ccccc1N=[S@](C)(=O)c1ccc(C)cc1
inactive: A498 8.41 µM | CCRF-CEM 11.5 µM | HCC 2998 24.2 µM | HOP-62 24.2 µM | K562 4.09 µM | KM12 8.53 µM | LOX IMVI 23.5 µM | MDA-MB-231 23.8 µM | MOLT-4 19.8 µM | NCI/ADR-RES 7.13 µM | OVCAR-8 28.5 µM | PC-3 13.4 µM | RPMI-8226 18 µM | RXF 393 13.2 µM | SF-268 29.4 µM | SK-OV-3 30.3 µM | SN12C 34.9 µM | SNB-75 6.21 µM | UACC-257 8.85 µM

c1cnc2nc3n(c2c1)CSC3
inactive: A498 > 100 µM | CCRF-CEM > 100 µM | HCC 2998 > 100 µM | HOP-62 > 100 µM | K562 > 100 µM | KM12 > 100 µM | LOX IMVI > 100 µM | MOLT-4 > 100 µM | OVCAR-8 > 100 µM | RPMI-8226 > 100 µM | RXF 393 > 100 µM | SF-268 > 100 µM | SK-OV-3 > 100 µM | SN12C > 100 µM | SNB-75 > 100 µM | UACC-257 > 100 µM

Nc1ccn(C2CC(O)C(COP(=O)(S)OC3CC(n4ccc(N)nc4=O)OC3CO)O2)c(=O)n1 (stereo not given)
inactive: CCRF-CEM > 100 µM | HCC 2998 > 100 µM | HOP-62 > 100 µM | KM12 > 100 µM | LOX IMVI > 100 µM | MDA-MB-231 > 100 µM | MDA-N 4.93 µM | MOLT-4 > 100 µM | NCI/ADR-RES > 100 µM | OVCAR-8 > 100 µM | PC-3 > 100 µM | RPMI-8226 > 100 µM | SF-268 > 100 µM | SN12C 52.4 µM | SNB-75 36.5 µM | UACC-257 > 100 µM

CC(C)(C)c1cc(C(=O)/C=C/C=C/c2ccccc2)cc(C(C)(C)C)c1O
inactive: A498 20.6 µM | CCRF-CEM 3.15 µM | HCC 2998 14 µM | HOP-62 41.2 µM | K562 7.31 µM | KM12 > 28.2 µM | LOX IMVI 19.8 µM | MDA-MB-231 19.4 µM | MOLT-4 12.8 µM | NCI/ADR-RES 8.73 µM | OVCAR-8 19.5 µM | PC-3 14.7 µM | RPMI-8226 6.97 µM | RXF 393 2.94 µM | SF-268 25.2 µM | SK-OV-3 31.8 µM | SN12C 27.4 µM | SNB-75 14.7 µM | UACC-257 6.53 µM

CC1(Cl)C(=O)NC(=O)N([C@H]2C[C@H](O)[C@@H](CO)O2)C1N=[N+]=[N-] (stereo not given in full)
inactive: A498 > 100 µM | CCRF-CEM > 100 µM | HCC 2998 > 100 µM | HOP-62 > 100 µM | K562 > 100 µM | KM12 > 100 µM | LOX IMVI > 100 µM | MOLT-4 > 100 µM | OVCAR-8 > 100 µM | RPMI-8226 > 100 µM | RXF 393 > 100 µM | SF-268 > 100 µM | SK-OV-3 > 100 µM | SN12C > 100 µM | SNB-75 > 100 µM | UACC-257 > 100 µM

COC(=O)c1cnc(Cl)cn1
inactive: CCRF-CEM 35.9 µM | HOP-62 > 100 µM | K562 40.1 µM | KM12 24.9 µM | LOX IMVI 33.4 µM | MDA-MB-231 71.8 µM | MOLT-4 41.4 µM | NCI/ADR-RES 45.6 µM | OVCAR-8 73.5 µM | PC-3 13.6 µM | RPMI-8226 21 µM | SF-268 49 µM | SK-OV-3 > 100 µM | SN12C 30.5 µM | SNB-75 90.4 µM | UACC-257 57.9 µM

From ChEMBL document CHEMBL1201862, “PubChem BioAssay data set” (2004)
